This assay has as its system Gram-positive bacteria, including methicillin-resistant S. aureus and vancomycin-resistant E. faecium. As to the kind of experiment: Antimicrobial susceptibility assay, summary over Gram-positive bacteria. In kind it is cell-based. The note with it: Staphylococcus aureus; Gram-positive bacteria incl. MRSA and VREF. The source says: The bacterial strains S. aureus ATCC 29213, S. aureus ATCC 29247, S. aureus ATCC BAA-41, E. faecium ATCC 49624, E. faecium ATCC 700221, E. faecalis ATCC 29212, S. epidermidis ATCC 12228, E. coli ATCC 25922, and K. pneumoniae ATCC BAA-1144 used in the antimicrobial susceptibility assays were purchased from American Type Culture Collection (ATCC, USA). B. subtilis strain 168 was already available in our in-house collection. E. coli JM109 WM647 was kindly provided by Dr. W. Margolin (University of Texas-Houston Medical School). FM 4–64 was purchased from Invitrogen (Eugene, Oregon). All other chemicals and reagents were purchased from Sigma-Aldrich. Stock solutions were prepared in DMSO. The final percentage of DMSO in the assays was 1% (v/v) for all experiments.
Antimicrobial susceptibility tests were conducted in 96-well microplates using the broth microdilution procedure described in the Clinical and Laboratory Standards Institute (CLSI) guidelines. […] After incubation for 18 h at 37°C, the absorbance at 600 nm (A600) was recorded using a microplate reader (Bio-Rad laboratory Ltd., UK) and the percentage of bacterial cell inhibition with respect to vehicles (1% DMSO) was calculated. […]

As a reminder, the MIC is the lowest concentration that inhibits growth of the organism. A lower MIC goes with greater potency. Compound `COc1ccc2cc3[n+](cc2c1OCCCOc1ccc(Cl)cc1)CCc1cc2c(cc1-3)OCO2` [Compound 2] came in with an MIC of 2 to 4 µg/mL.

The values are drawn from PMC4019636, “Rational Design of Berberine-Based FtsZ Inhibitors with Broad-Spectrum Antibacterial Activity” (PLoS ONE, 2014).
